Test system: MV-4-11 cells
Assay: Gene expression microarray analysis (Affymetrix PrimeView) and GSEA
Type: cell-based, human
Set-up: RFU PODN (11730768_x_at) / Fold change /veh PODN (11730768_x_at) / RFU LINC00158 (11744669_a_at) / Fold change /veh LINC00158 (11744669_a_at) / RFU DUSP10 (11751237_a_at) / Fold change /veh DUSP10 (11751237_a_at) / RFU ID3 (11757404_x_at) / Fold change /veh ID3 (11757404_x_at) / RFU PLEKHG5 (11737974_s_at) / Fold change /veh PLEKHG5 (11737974_s_at) / RFU LRRC4B (11730491_at) / Fold change /veh LRRC4B (11730491_at) / RFU GIMAP4 (11747438_a_at) / Fold change /veh GIMAP4 (11747438_a_at) / RFU KRT8 (11758183_x_at) / Fold change /veh KRT8 (11758183_x_at) / RFU CNN1 (11734310_a_at) / Fold change /veh CNN1 (11734310_a_at) / RFU VPS37D (11726825_at) / Fold change /veh VPS37D (11726825_at) / RFU C10orf10 (11716522_x_at) / Fold change /veh C10orf10 (11716522_x_at) / RFU KIR2DL2 /// KIR2DL4 /// KIR2DL5A /// KIR2DL5B /// KIR2DS1 /// KIR2DS2 /// KIR2DS3 /// KIR2DS4 /// KIR3DL3 /// KIR3DL3 /// KIR3DS1 (11738374_at) / Fold change /veh KIR2DL2 /// KIR2DL4 /// KIR2DL5A /// KIR2DL5B /// KIR2DS1 /// KIR2DS2 /// KIR2DS3 /// KIR2DS4 /// KIR3DL3 /// KIR3DL3 /// KIR3DS1 (11738374_at) / RFU C1QL1 (11718748_at) / Fold change /veh C1QL1 (11718748_at) / RFU TMPRSS4 (11747572_a_at) / Fold change /veh TMPRSS4 (11747572_a_at) / RFU HAMP (11756126_x_at) / Fold change /veh HAMP (11756126_x_at) / RFU RNFT2 (11725882_a_at) / Fold change /veh RNFT2 (11725882_a_at) / RFU NR4A2 (11747474_a_at) / Fold change /veh NR4A2 (11747474_a_at) / RFU ABCC12 (11746883_a_at) / Fold change /veh ABCC12 (11746883_a_at) / RFU TMEM136 (11760407_x_at) / Fold change /veh TMEM136 (11760407_x_at) / RFU CLDN22 /// WWC2 (11732394_at) / Fold change /veh CLDN22 /// WWC2 (11732394_at) / RFU HLA-DPB1 (11760878_x_at) / Fold change /veh HLA-DPB1 (11760878_x_at) / RFU SPINT1 (11716480_a_at) / Fold change /veh SPINT1 (11716480_a_at) / RFU GAP43 (11754022_s_at) / Fold change /veh GAP43 (11754022_s_at) / RFU A4GNT (11735810_at) / Fold change /veh A4GNT (11735810_at) / RFU PRB3 (11715151_x_at) / Fold change /veh PRB3 (11715151_x_at) / RFU TUBB4B (11761932_at) / Fold change /veh TUBB4B (11761932_at) / RFU CAPN14 (11732068_a_at) / Fold change /veh CAPN14 (11732068_a_at) / RFU TMCC2 (11721928_a_at) / Fold change /veh TMCC2 (11721928_a_at) / RFU IRGQ (11745062_a_at) / Fold change /veh IRGQ (11745062_a_at) / RFU FAM174B (11720279_a_at) / Fold change /veh FAM174B (11720279_a_at) / RFU TMPRSS4 (11748680_a_at) / Fold change /veh TMPRSS4 (11748680_a_at) / RFU FAM212B (11763350_a_at) / Fold change /veh FAM212B (11763350_a_at) / RFU PLEKHG5 (11743358_a_at) / Fold change /veh PLEKHG5 (11743358_a_at) / RFU ZSCAN30 (11745921_a_at) / Fold change /veh ZSCAN30 (11745921_a_at) / RFU CMKLR1 (11741424_a_at) / Fold change /veh CMKLR1 (11741424_a_at) / RFU LOC101060620 /// MAPK8IP1 (11723275_at) / Fold change /veh LOC101060620 /// MAPK8IP1 (11723275_at) / RFU SPTSSB (11747773_x_at) / Fold change /veh SPTSSB (11747773_x_at) / RFU PRSS12 (11739890_at) / Fold change /veh PRSS12 (11739890_at) / RFU BIN1 (11741810_x_at) / Fold change /veh BIN1 (11741810_x_at) / RFU WNT11 (11732464_a_at) / Fold change /veh WNT11 (11732464_a_at) / RFU C10orf10 (11716521_a_at) / Fold change /veh C10orf10 (11716521_a_at) / RFU C5orf56 (11738089_at) / Fold change /veh C5orf56 (11738089_at) / RFU CYB561 (11721691_x_at) / Fold change /veh CYB561 (11721691_x_at) / RFU ANKRD19P (11752326_a_at) / Fold change /veh ANKRD19P (11752326_a_at) / RFU OR2T12 /// OR2T33 /// OR2T8 (11738714_s_at) / Fold change /veh OR2T12 /// OR2T33 /// OR2T8 (11738714_s_at) / RFU VCAN (11748164_a_at) / Fold change /veh VCAN (11748164_a_at) / RFU JSRP1 (11732532_at) / Fold change /veh JSRP1 (11732532_at) / RFU KRTAP10-11 (11738290_x_at) / Fold change /veh KRTAP10-11 (11738290_x_at) / RFU MYO3A (11730013_a_at) / Fold change /veh MYO3A (11730013_a_at) / RFU EBF3 (11725865_a_at) / Fold change /veh EBF3 (11725865_a_at) / RFU CAMK2N1 (11719241_x_at) / Fold change /veh CAMK2N1 (11719241_x_at) / RFU C5orf56 (11738088_a_at) / Fold change /veh C5orf56 (11738088_a_at) / RFU OLFML3 (11715873_a_at) / Fold change /veh OLFML3 (11715873_a_at) / RFU LOC100653217 /// NTM (11731650_a_at) / Fold change /veh LOC100653217 /// NTM (11731650_a_at) / RFU MAPK11 (11762145_a_at) / Fold change /veh MAPK11 (11762145_a_at) / RFU FIZ1 (11724087_x_at) / Fold change /veh FIZ1 (11724087_x_at) / RFU OASL (11726364_x_at) / Fold change /veh OASL (11726364_x_at) / RFU SOX15 (11748057_x_at) / Fold change /veh SOX15 (11748057_x_at) / RFU CD79A (11719716_a_at) / Fold change /veh CD79A (11719716_a_at) / RFU HIST1H1D (11736915_at) / Fold change /veh HIST1H1D (11736915_at) / RFU CASKIN2 (11723855_a_at) / Fold change /veh CASKIN2 (11723855_a_at) / RFU LOC730098 (11760151_x_at) / Fold change /veh LOC730098 (11760151_x_at) / RFU OR4N2 (11742367_at) / Fold change /veh OR4N2 (11742367_at) / RFU PRRT2 (11749266_a_at) / Fold change /veh PRRT2 (11749266_a_at) / RFU SNX32 (11753110_a_at) / Fold change /veh SNX32 (11753110_a_at) / RFU CDHR5 (11726645_a_at) / Fold change /veh CDHR5 (11726645_a_at) / RFU RCAN1 (11760418_a_at) / Fold change /veh RCAN1 (11760418_a_at) / RFU FAM167A (11723789_a_at) / Fold change /veh FAM167A (11723789_a_at) / RFU FAM26E (11764081_at) / Fold change /veh FAM26E (11764081_at) / RFU ISYNA1 (11749810_s_at) / Fold change /veh ISYNA1 (11749810_s_at) / RFU ACY1 (11761880_at) / Fold change /veh ACY1 (11761880_at) / RFU 11764098_at / Fold change /veh 11764098_at / RFU SAMD14 (11745864_x_at) / Fold change /veh SAMD14 (11745864_x_at) / RFU NPB (11741838_a_at) / Fold change /veh NPB (11741838_a_at) / RFU TMPRSS6 (11731388_a_at) / Fold change /veh TMPRSS6 (11731388_a_at) / RFU KRTAP10-2 (11738614_at) / Fold change /veh KRTAP10-2 (11738614_at) / RFU ARHGAP8 /// PRR5-ARHGAP8 (11727945_x_at) / Fold change /veh ARHGAP8 /// PRR5-ARHGAP8 (11727945_x_at) / RFU KRTAP5-7 /// NADSYN1 (11734609_at) / Fold change /veh KRTAP5-7 /// NADSYN1 (11734609_at) / RFU RASL12 (11751679_a_at) / Fold change /veh RASL12 (11751679_a_at) / RFU CDKN2B (11736163_a_at) / Fold change /veh CDKN2B (11736163_a_at) / RFU PRF1 (11729649_at) / Fold change /veh PRF1 (11729649_at) / RFU, ZNF638 /// ZNF638-IT1 / Fold change vs veh, ZNF638 /// ZNF638-IT1 / RFU, PANK3 / Fold change vs veh, PANK3 / RFU, SH3YL1 / Fold change vs veh, SH3YL1 / RFU, ZEB2 / Fold change vs veh, ZEB2 / RFU, NRIP1 / Fold change vs veh, NRIP1 / RFU, PTTG1IP / Fold change vs veh, PTTG1IP / RFU, CAPN2 / Fold change vs veh, CAPN2 / RFU, MED14 / Fold change vs veh, MED14 / RFU, SNORA58 / Fold change vs veh, SNORA58 / RFU, C1orf63 / Fold change vs veh, C1orf63 / RFU, LRRFIP1 / Fold change vs veh, LRRFIP1 / RFU, NDUFAF7 / Fold change vs veh, NDUFAF7 / RFU, SLC12A2 / Fold change vs veh, SLC12A2 / RFU, IBTK / Fold change vs veh, IBTK / RFU, ESF1 / Fold change vs veh, ESF1 / Fold change vs veh, TMEM50B / RFU, TAOK1 / Fold change vs veh, TAOK1 / RFU, ACBD3 / Fold change vs veh, ACBD3 / RFU, TMA16 / Fold change vs veh, TMA16 / RFU, RWDD3 / Fold change vs veh, RWDD3 / RFU, BCAT1 / Fold change vs veh, BCAT1 / RFU, EDEM3 / Fold change vs veh, EDEM3 / RFU, TMEM33 / Fold change vs veh, TMEM33 / RFU, WDR75 / Fold change vs veh, WDR75 / RFU, AHCTF1 / Fold change vs veh, AHCTF1 / RFU, TFRC / Fold change vs veh, TFRC / RFU, ZDHHC17 / Fold change vs veh, ZDHHC17 / RFU, NOM1 / Fold change vs veh, NOM1 / RFU, ARL8B / Fold change vs veh, ARL8B / RFU, ZBTB11 / Fold change vs veh, ZBTB11 / RFU, TAMM41 / Fold change vs veh, TAMM41 / RFU, KIAA1704 /// LOC100996395 / Fold change vs veh, KIAA1704 /// LOC100996395 / RFU, ING1 / Fold change vs veh, ING1 / RFU, TRMT61B / Fold change vs veh, TRMT61B / RFU, FUBP3 / Fold change vs veh, FUBP3 / RFU, TP53 / Fold change vs veh, TP53 / RFU, TNKS2 / Fold change vs veh, TNKS2 / RFU, ZFP14 / Fold change vs veh, ZFP14 / RFU, ACTR2 / Fold change vs veh, ACTR2 / RFU, PPP3R1 / Fold change vs veh, PPP3R1 / RFU, PIK3R1 / Fold change vs veh, PIK3R1 / RFU, HNRNPA1 / Fold change vs veh, HNRNPA1 / RFU, RNF170 / Fold change vs veh, RNF170 / RFU, ZNF28 / Fold change vs veh, ZNF28 / RFU, RNGTT / Fold change vs veh, RNGTT / RFU, OGT / Fold change vs veh, OGT / RFU, BRD1 / Fold change vs veh, BRD1 / RFU, MARS / Fold change vs veh, MARS / RFU, ZNF655 / Fold change vs veh, ZNF655 / RFU, FAHD1 / Fold change vs veh, FAHD1 / RFU, BDP1 / Fold change vs veh, BDP1 / RFU, LRRCC1 / Fold change vs veh, LRRCC1 / RFU, ARID1A / Fold change vs veh, ARID1A / RFU, ZNF146 / Fold change vs veh, ZNF146 / RFU, ZNF330 / Fold change vs veh, ZNF330 / RFU, GPN3 / Fold change vs veh, GPN3 / RFU, C9orf123 / Fold change vs veh, C9orf123 / RFU, N4BP2L2 / Fold change vs veh, N4BP2L2 / RFU, ARFIP1 / Fold change vs veh, ARFIP1 / RFU, FAM179B / Fold change vs veh, FAM179B / RFU, BCL10 / Fold change vs veh, BCL10 / RFU, UHRF1BP1L / Fold change vs veh, UHRF1BP1L / RFU, BET1 / Fold change vs veh, BET1 / RFU, CNOT2 / Fold change vs veh, CNOT2 / RFU, ZNF268 / Fold change vs veh, ZNF268 / Fold change vs veh, ZNF507 / RFU, DGCR2 / Fold change vs veh, DGCR2 / RFU, WDSUB1 / Fold change vs veh, WDSUB1 / Fold change vs veh, HSP90B1 /// MIR3652 / RFU, ADSS / Fold change vs veh, ADSS / RFU, GK / Fold change vs veh, GK / RFU, ZNF148 / Fold change vs veh, ZNF148 / RFU, TAF9 / Fold change vs veh, TAF9 / RFU, SLC1A5 / Fold change vs veh, SLC1A5 / RFU, SLMO2 / Fold change vs veh, SLMO2 / RFU, ABCC4 / Fold change vs veh, ABCC4 / RFU, LOC101060439 /// RAP1B / Fold change vs veh, LOC101060439 /// RAP1B / RFU, RFX7 / Fold change vs veh, RFX7 / RFU, GTPBP10 / Fold change vs veh, GTPBP10 / RFU, CNEP1R1 / Fold change vs veh, CNEP1R1 / RFU, BIVM-ERCC5 /// ERCC5 / Fold change vs veh, BIVM-ERCC5 /// ERCC5 / RFU, ILF3 / Fold change vs veh, ILF3 / RFU 11762660_at / Fold change /veh 11762660_at / RFU VCAN (11757783_s_at) / Fold change /veh VCAN (11757783_s_at) / RFU DDX43 (11728927_at) / Fold change /veh DDX43 (11728927_at) / RFU KRT8 (11758188_x_at) / Fold change /veh KRT8 (11758188_x_at) / RFU NKD1 (11759106_at) / Fold change /veh NKD1 (11759106_at) / RFU SRD5A1 (11742802_a_at) / Fold change /veh SRD5A1 (11742802_a_at) / RFU TPSAB1 /// TPSB2 (11721975_s_at) / Fold change /veh TPSAB1 /// TPSB2 (11721975_s_at) / RFU GSTM3 (11746129_a_at) / Fold change /veh GSTM3 (11746129_a_at) / RFU IL23R (11737362_x_at) / Fold change /veh IL23R (11737362_x_at) / RFU TMEM51 (11727254_a_at) / Fold change /veh TMEM51 (11727254_a_at) / RFU PIWIL2 (11732686_x_at) / Fold change /veh PIWIL2 (11732686_x_at) / RFU ORM1 (11744905_x_at) / Fold change /veh ORM1 (11744905_x_at) / RFU CCDC152 (11743942_at) / Fold change /veh CCDC152 (11743942_at) / RFU ECM1 (11717891_a_at) / Fold change /veh ECM1 (11717891_a_at) / RFU IL23R (11748794_a_at) / Fold change /veh IL23R (11748794_a_at) / RFU TNFAIP8L3 (11732012_x_at) / Fold change /veh TNFAIP8L3 (11732012_x_at) / RFU MBOAT4 (11741988_at) / Fold change /veh MBOAT4 (11741988_at) / RFU 11764193_at / Fold change /veh 11764193_at / RFU TMEM53 (11763286_at) / Fold change /veh TMEM53 (11763286_at) / RFU MAGEB2 (11727129_at) / Fold change /veh MAGEB2 (11727129_at) / RFU TMEM200A (11744735_a_at) / Fold change /veh TMEM200A (11744735_a_at) / RFU CCDC152 (11751479_a_at) / Fold change /veh CCDC152 (11751479_a_at) / RFU FAM211A (11726209_a_at) / Fold change /veh FAM211A (11726209_a_at) / RFU RGS16 (11746705_a_at) / Fold change /veh RGS16 (11746705_a_at) / RFU VCAN (11755009_s_at) / Fold change /veh VCAN (11755009_s_at) / RFU RHOB (11743442_s_at) / Fold change /veh RHOB (11743442_s_at) / RFU RGS16 (11720943_a_at) / Fold change /veh RGS16 (11720943_a_at) / RFU RGS16 (11720944_at) / Fold change /veh RGS16 (11720944_at) / RFU, VPS4B / Fold change vs veh, VPS4B / RFU, CREB1 / Fold change vs veh, CREB1 / RFU, DNAJC13 / Fold change vs veh, DNAJC13 / RFU, GNAQ / Fold change vs veh, GNAQ / RFU, CDK5R1 / Fold change vs veh, CDK5R1 / RFU, ZRANB3 / Fold change vs veh, ZRANB3 / RFU, CUL4A / Fold change vs veh, CUL4A / RFU, CCNY / Fold change vs veh, CCNY / RFU, UFL1 / Fold change vs veh, UFL1 / RFU, COG3 / Fold change vs veh, COG3 / RFU, DIAPH2 / Fold change vs veh, DIAPH2 / RFU, SKA2 / Fold change vs veh, SKA2 / RFU, AFF3 / Fold change vs veh, AFF3 / RFU, LMF1 / Fold change vs veh, LMF1 / RFU, IPO11 / Fold change vs veh, IPO11 / RFU, DFFB / Fold change vs veh, DFFB / RFU, FOXP1 / Fold change vs veh, FOXP1 / RFU, CARD8 / Fold change vs veh, CARD8 / RFU, STRN3 / Fold change vs veh, STRN3 / RFU, ADK / Fold change vs veh, ADK / RFU, RASSF2 / Fold change vs veh, RASSF2 / RFU, WIPF1 / Fold change vs veh, WIPF1 / RFU, LARP1B / Fold change vs veh, LARP1B / RFU, RASA1 / Fold change vs veh, RASA1 / RFU, RB1 / Fold change vs veh, RB1 / RFU, PPFIA1 / Fold change vs veh, PPFIA1 / RFU, MAT2A / Fold change vs veh, MAT2A / RFU, CCT5 / Fold change vs veh, CCT5 / RFU, WDR92 / Fold change vs veh, WDR92 / RFU, CUX1 / Fold change vs veh, CUX1 / RFU, TTC7A / Fold change vs veh, TTC7A / RFU, TMEM135 / Fold change vs veh, TMEM135 / RFU, DEPTOR / Fold change vs veh, DEPTOR / RFU, CPM / Fold change vs veh, CPM / RFU, DNAJB6 / Fold change vs veh, DNAJB6 / RFU, CACNA2D3 / Fold change vs veh, CACNA2D3 / RFU, DTX4 / Fold change vs veh, DTX4 / RFU, TFCP2 / Fold change vs veh, TFCP2 / RFU, GMCL1 /// GMCL1P1 / Fold change vs veh, GMCL1 /// GMCL1P1 / RFU, AEBP2 / Fold change vs veh, AEBP2 / RFU, SNHG1 /// SNORD22 /// SNORD25 /// SNORD26 /// SNORD27 /// SNORD28 /// SNORD29 /// SNORD31 / Fold change vs veh, SNHG1 /// SNORD22 /// SNORD25 /// SNORD26 /// SNORD27 /// SNORD28 /// SNORD29 /// SNORD31 / Fold change (Aza/veh), C12orf56 (ProbeSet 11735607_a_at) / Fold change (ACY-1035/veh), C12orf56 (ProbeSet 11735607_a_at) / Fold change (Aza/veh), FGFR1OP (ProbeSet 11751329_s_at) / Fold change (ACY-1035/veh), FGFR1OP (ProbeSet 11751329_s_at) / Fold change (Aza/veh), VPS36 (ProbeSet 11739960_a_at) / Fold change (ACY-1035/veh), VPS36 (ProbeSet 11739960_a_at) / RFU SYPL1 (11715823_x_at) / Fold change /veh SYPL1 (11715823_x_at) / RFU IGFBP7 (11715501_s_at) / Fold change /veh IGFBP7 (11715501_s_at) / RFU REEP3 (11722064_at) / Fold change /veh REEP3 (11722064_at) / RFU IGLL1 (11728026_x_at) / Fold change /veh IGLL1 (11728026_x_at): dose or concentration left out as unconfirmed
Details: MV-4-11 cells, 48 hours

SMILES: Nc1ccc(-c2cccs2)cc1NC(=O)c1ccc2c(c1)cc(C1CC1)n2CCN1CCOCC1 [ACY-1035]
- Fold change /veh OR2T12 /// OR2T33 /// OR2T8 (11738714_s_at): 1.06
